From patent US12473259B2, “Anhydrous crystal of monosodium n-(2-ethylsulfonylamino-5-trifluoromethyl-3-pyridyl)cyclohexane carboxamide” (ISHIHARA SANGYO KAISHA, LTD., priority 2019, dated 2025)

What was measured:
Format in all cases: physicochemical
[1] = Measurement of solubility in distilled water (HPLC); settings: room temperature, shaken 1 hour, saturated solution
Description: After 10 mL of distilled water was put into 0.5 g of the anhydrous crystal obtained in Production Example 1 or the monohydrous crystal as a raw material, the solution was horizontally shaken with a shaker (manufactured by TAITEC CORPORATION, STRONG SHAKER SR-2DS) at room temperature and at a shaking speed of 150 strokes/min and a shaking width of 4 cm/stroke for 1 hour. Thereafter, a precipitate was confirmed to be remained, and centrifugation (3,000 rpm×10 minutes) was performed to take a supernatant, followed by filtration using a membrane filter to obtain a supernatant of a saturated solution. 2 mL of the supernatant of the saturated solution was weighed in a 20 mL volumetric flask to make a constant volume with a mobile phase, and this was used as a sample solution, followed by measurement of solubility under the following HPLC conditions: • Analyzer: HPLC ACQUITY Arc system (manufactured by Waters K. K.) • Mobile phase: acetonitrile/water/acetic acid=50/49.5/0.5, v/v • Detector: ultraviolet spectrophotometer λ=276 nm (1 Au/V) • Column: Nucleosil 5 C18 (4.6 φ×250 mm) (manufactured by MACHEREY-NAGEL GmbH & Co. KG) • Column temperature: 50° C. • Flow rate: 1.075 ml/min • Injection volume: 20 μL • Measurement time: 40 minutes

[2] = Observation of particle shape by scanning electron microscopy; settings: SEM micrograph
Text: Micrographs of particles of the anhydrous crystal of the present invention and the monohydrous crystal were taken using scanning electron microscopy (SEM) (Hitachi, Ltd., S-3200N).

[3] = Long diameter, short diameter and aspect ratio by particle shape image analyzer PITA-3; settings: for Aspect ratio (d50): long diameter (d50)/short diameter (d50)
Description: Regarding the anhydrous crystal obtained in Production Example 1 and the monohydrous crystal as a raw material, the long diameter and the short diameter were measured using a particle shape image analyzer PITA-3 (SEISHIN ENTERPRISE Co., Ltd.), and the aspect ratio was calculated.
The longest diameter in the particle was regarded as the long diameter, and the shortest diameter in the particle was regarded as the short diameter. The aspect ratio was calculated by the following formula: Aspect ratio=long diameter/short diameter
Specifically, measurement was performed under the following conditions:
Carrier liquid: n-hexane+lecithin
Dispersion condition: ultrasonic wave for 5 minutes
Flow rate of first carrier liquid: 500.00 μL/second
Flow rate of second carrier liquid: 500.00 μL/second
Flow rate of sample dispersion liquid: 0.42 μL/second
Observation magnification: 10 times
Light control filter: None
Number of particles observed: 6,992 (anhydrous crystal) or 9,628 (monohydrous crystal)

[4] = Angle of repose (Japanese Pharmacopoeia); settings: compared with the monohydrous crystal
Description: Regarding the particles of the anhydrous crystal obtained in Production Example 1 and the monohydrous crystal, the angle of repose was measured in accordance with Angle of repose mentioned in the Japanese Pharmacopoeia, Seventeenth Edition.

[5] = BET specific surface area by nitrogen adsorption method; settings: BET multipoint method, nitrogen gas
Description: The specific surface area was measured by a nitrogen adsorption method using Flow sorb II 2300 (Shimadzu Corporation). Specifically, the BET specific surface area was measured by a BET multipoint method by nitrogen adsorption under the following conditions: • Sample amount: 0.2 g • Deaeration condition: 150° C. (anhydrous), 80° C. (monohydrous) • Adsorption gas: nitrogen gas

[6] = Tapped density and bulk density, powder tester (Japanese Pharmacopoeia Method 3); settings: 100 mL cylindrical container; for Tapped density: 100 times per 3 minutes
Description: Regarding the anhydrous crystal obtained in Production Example 1 and the monohydrous crystal as a raw material, the bulk density and the tapped density were measured with a powder tester type A.B.D-72 (TSUTSUI SCIENTIFIC INSTRUMENTS Co., Ltd.) in accordance with of Method 3 (measuring vessel) of Determination of Bulk Density and Method 3 of Determination of Tapped Density mentioned in the Japanese Pharmacopoeia, Seventeenth Edition. Specifically, regarding the bulk density, an excess of a sample was freely fallen through the apparatus into a cylindrical container (volume of 100 mL, inner diameter of 5.05 cm) until a container overflowed. Then, the edge of a spatula standing vertically in contact with the top surface of the container was moved smoothly, and an excess of the sample was carefully slashed off from the top surface of the container. The bulk density was calculated by dividing the mass (g) of the sample in the container by a volume of 100 mL. The tapped density was, specifically, measured as a density when the sample was filled in a cylindrical container (volume of 100 mL, inner diameter of 5.05 cm) in the same manner as for the bulk density measurement and was fallen using the apparatus at a rate of 100 times per 3 minutes.

| Solubility [1] | Particle shape [2] | Long diameter (d50) [3] | Short diameter (d50) [3] | Aspect ratio (d50) [3] | Specific surface area [5] | Bulk density [6] | Tapped density [6] | solubility at 1 h ([1]; water, thermodynamic from solid) | SMILES | Angle of repose [4] |
| --- | --- | --- | --- | --- | --- | --- | --- | --- | --- | --- |
| 204 µg/mL | massive | 6.09 μm | 3.34 μm | 1.82 | 3.38 m^2/g | 0.289 g/mL | 0.367 g/mL |  | CCS(=O)(=O)Nc1ncc(C(F)(F)F)cc1NC(=O)C1CCCCC1.[Na] [Anhydrous crystal, monosodium N-(2-ethylsulfonylamino-5-trifluoromethyl-3-pyridyl)cyclohexane carboxamide] | smaller than the angle of repose of the particle of the monohydrous crystal |
|  | needle like | 15.80 μm | 3.19 μm | 4.95 | 4.36 m^2/g | 0.18 g/mL | 0.207 g/mL | 160 µg/mL | CCS(=O)(=O)Nc1ncc(C(F)(F)F)cc1NC(=O)C1CCCCC1.[Na] [Monohydrous crystal, monosodium N-(2-ethylsulfonylamino-5-trifluoromethyl-3-pyridyl)cyclohexane carboxamide] |  |
